Experiment: Particle size distribution and specific surface area (LS 200, Small Volume Module, Fraunhofer optical model)
Type: physicochemical
Conditions: for Particle size, % < 10: 10% of volume below this size; for Particle size, % < 25: 25% of volume below this size; for Particle size, % < 50: 50% of volume below this size; for Particle size, % < 75: 75% of volume below this size; for Particle size, % < 100: 100% of volume below this size; for Mean particle size (volume statistics, arithmetic) / Median particle size (volume statistics, arithmetic) / Specific Surf. Area: calculations from 0.375 μm to 2000 μm
Text: FIG. 2 depicts and the data below tabulate for Sample 1 the arithmetic statistics describing surface area, particle size, and cumulative volume characteristics for one lot of drug substance (feed material). The particle size distribution for this lot is depicted in FIG. 2.
Table 11 A-D tabulates the arithmetic statistics describing surface area, particle size, and cumulative volume characteristics for three lots of drug substance (feed material). The particle size distributions for these lots are depicted in FIG. 7. […] Of these three lots of drug substance, 100% of the particles are less than 83.89 μm, 373.1 μm, and 69.61 μm, respectively.
Table 12 tabulates the arithmetic statistics describing surface area, particle size, and cumulative volume characteristics for three lots of drug product (encapsulated granulation samples) that were manufactured with the three lots of drug substance (feed material) as depicted in FIG. 7. […] Of these three lots of drug product, 100% of the granules are less than 1660 μm, 2000 μm, and 1512 μm, respectively. The particle size distributions for these three lots are depicted in FIG. 8.

[1] = Particle Diameter (Lower) 0.375 μm
[2] = Particle Diameter (Lower) 0.656 μm
[3] = Particle Diameter (Lower) 1.149 μm
[4] = Particle Diameter (Lower) 2.011 μm
[5] = Particle Diameter (Lower) 3.519 μm
[6] = Particle Diameter (Lower) 6.158 μm
[7] = Particle Diameter (Lower) 10.78 μm
[8] = Particle Diameter (Lower) 18.86 μm
[9] = Particle Diameter (Lower) 33.01 μm
[10] = Particle Diameter (Lower) 57.77 μm
[11] = Particle Diameter (Lower) 101.1 μm
[12] = Particle Diameter (Lower) 176.9 μm
[13] = Particle Diameter (Lower) 309.6 μm
[14] = Particle Diameter (Lower) 541.9 μm
[15] = Particle Diameter (Lower) 948.3 μm
[16] = Particle Diameter (Lower) 1660 μm

| SMILES | Cum. < Volume % [1] | Diff. Volume % [1] | Cum. < Volume % [2] | Diff. Volume % [2] | Cum. < Volume % [3] | Diff. Volume % [3] | Cum. < Volume % [4] | Diff. Volume % [4] | Cum. < Volume % [5] | Diff. Volume % [5] | Cum. < Volume % [6] | Diff. Volume % [6] | Cum. < Volume % [7] | Diff. Volume % [7] | Diff. Volume % [8] | Cum. < Volume % [9] | Diff. Volume % [9] | Cum. < Volume % [10] | Diff. Volume % [10] | Cum. < Volume % [11] | also measured |
| --- | --- | --- | --- | --- | --- | --- | --- | --- | --- | --- | --- | --- | --- | --- | --- | --- | --- | --- | --- | --- | --- |
| O=C([O-])CCNC(=O)c1ccc(/N=N/c2ccc(O)c(C(=O)[O-])c2)cc1.[Na+].[Na+] [Sample 3] | 0% | 2.13% | 2.13% | 4.92% | 7.05% | 6.97% | 14.0% | 12.1% | 26.1% | 20.4% | 46.4% | 25.7% | 72.2% | 19.8% | 7.20% | 99.2% | 0.79% | 99.997% | 0.0029% | 100% | Particle size, % < 10: 1.498 μm; Particle size, % < 25: 3.385 μm; Particle size, % < 50: 6.679 μm; Particle size, % < 75: 11.50 μm; Particle size, % < 100: 63.41 μm; Cum. < Volume % [8]: 92.0%; Diff. Volume % [11]: 0%; Cum. < Volume % [12]: 100%; Diff. Volume % [12]: 0%; Cum. < Volume % [13]: 100%; Diff. Volume % [13]: 0%; Cum. < Volume % [14]: 100%; Diff. Volume % [14]: 0%; Cum. < Volume % [15]: 100%; Diff. Volume % [15]: 0%; Cum. < Volume % [16]: 100%; Diff. Volume % [16]: 0%; Mean particle size (volume statistics, arithmetic): 8.399 μm; Median particle size (volume statistics, arithmetic): 6.679 μm; Specific Surf. Area: 16802 cm^2/mL |
| O=C(O)CCNC(=O)c1ccc(/N=N/c2ccc(O)c(C(=O)O)c2)cc1 [Feed Powder Sample C (#53.$02)] | 0% | 1.96% | 1.96% | 4.37% | 6.33% | 6.03% | 12.4% | 11.3% | 23.7% | 20.6% | 44.2% | 26.7% | 70.9% | 20.7% | 7.30% | 98.9% | 1.07% | 99.99% | 0.013% | 100% | Diff. Volume % [11]: 0%; Cum. < Volume % [12]: 100%; Diff. Volume % [12]: 0% |
| O=C(O)CCNC(=O)c1ccc(/N=N/c2ccc(O)c(C(=O)O)c2)cc1 [Feed Powder Sample A (#35.$01)] | 0% | 1.82% | 1.82% | 3.88% | 5.70% | 4.90% | 10.6% | 9.30% | 19.9% | 18.4% | 38.3% | 25.7% | 63.9% | 21.8% | 10.2% | 95.9% | 3.32% | 99.3% | 0.75% | 100% | Particle size, % < 10: 1.899 μm; Particle size, % < 25: 4.253 μm; Particle size, % < 50: 8.031 μm; Particle size, % < 75: 13.88 μm; Particle size, % < 100: 83.89 μm; Cum. < Volume % [8]: 85.7%; Diff. Volume % [11]: 0%; Cum. < Volume % [12]: 100%; Diff. Volume % [12]: 0%; Cum. < Volume % [13]: 100%; Mean particle size (volume statistics, arithmetic): 10.85 μm; Median particle size (volume statistics, arithmetic): 8.031 μm; Specific Surf. Area: 14230 cm^2/mL |
| O=C([O-])CCNC(=O)c1ccc(/N=N/c2ccc(O)c(C(=O)[O-])c2)cc1.[Na+].[Na+] [Sample 4] | 0% | 0.61% | 0.61% | 1.55% | 2.17% | 2.46% | 4.62% | 4.37% | 8.99% | 8.23% | 17.2% | 14.1% | 31.3% | 21.2% | 25.5% | 78.0% | 17.2% | 95.3% | 3.43% | 98.7% | Particle size, % < 10: 3.851 μm; Particle size, % < 25: 8.660 μm; Particle size, % < 50: 17.82 μm; Particle size, % < 75: 30.86 μm; Particle size, % < 100: 309.6 μm; Cum. < Volume % [8]: 52.5%; Diff. Volume % [11]: 1.08%; Cum. < Volume % [12]: 99.8%; Diff. Volume % [12]: 0.24%; Cum. < Volume % [13]: 100%; Diff. Volume % [13]: 0%; Cum. < Volume % [14]: 100%; Diff. Volume % [14]: 0%; Cum. < Volume % [15]: 100%; Diff. Volume % [15]: 0%; Cum. < Volume % [16]: 100%; Diff. Volume % [16]: 0%; Mean particle size (volume statistics, arithmetic): 22.93 μm; Median particle size (volume statistics, arithmetic): 17.82 μm; Specific Surf. Area: 7553 cm^2/mL |
| O=C(O)CCNC(=O)c1ccc(/N=N/c2ccc(O)c(C(=O)O)c2)cc1 [Feed Powder Sample B (#41.$02)] | 0% | 0.64% | 0.64% | 1.50% | 2.15% | 1.94% | 4.08% | 3.16% | 7.24% | 6.98% | 14.2% | 13.9% | 28.1% | 21.3% | 23.1% | 72.5% | 17.0% | 89.5% | 7.10% | 96.6% | Cum. < Volume % [8]: 49.5%; Diff. Volume % [11]: 2.65%; Cum. < Volume % [12]: 99.3%; Diff. Volume % [12]: 0.73% |

Source: US20090252788A1, “Balsalazide formulations and manufacture and use thereof” (Salix Pharmaceuticals, Inc., priority 2005, published 2009)
